Laboratory results: patent US10150747B2, “Compounds for the treatment of hepatitis C” (BRISTOL-MYERS SQUIBB COMPANY, priority 2015, dated 2018)

Experiments:
[1] = target: HCV NS5B genotype 1b (Con1) (Hepatitis C virus genotype 1b (isolate Con1) (HCV), UniProt Q9WMX2); test: HCV NS5B RdRp enzyme assay (1b enzyme); assay type: biochemical; conditions: genotype 1b NS5B enzyme
Experimental: HCV NS5B RdRp Cloning, Expression, and Purification.
The cDNA encoding NS5B proteins of HCV genotype 1b (Con1), a genotype 1b variant with amino acid 316 mutated from cysteine to asparagine, and genotype 2a (JFH-1), were cloned into the pET21a expression vector. Each untagged protein was expressed with an 18 amino acid C-terminal truncation to enhance the solubility. The E. coli competent cell line BL21(DE3) was used for expression of the protein. Cultures were grown at 37° C. for ˜4 hours until the cultures reached an optical density of 2.0 at 600 nm. The cultures were cooled to 20° C. and induced with 1 mM IPTG. Fresh ampicillin was added to a final concentration of 50 μg/mL and the cells were grown overnight at 20° C.
The lysis buffer consisted of 20 mM Tris-HCl, pH 7.4, 500 mM NaCl, 0.5% triton X-100, 1 mM DTT, 1 mM EDTA, 20% glycerol, 0.5 mg/mL lysozyme, 10 mM MgCl2, 15 ug/mL deoxyribonuclease I, and Complete TM protease inhibitor tablets (Roche). After addition of the lysis buffer, frozen cell pellets were resuspended using a tissue homogenizer. To reduce the viscosity of the sample, aliquots of the lysate were sonicated on ice using a microtip attached to a Branson sonicator. The sonicated lysate was centrifuged at 100,000×g for 30 minutes at 4° C. and filtered through a 0.2 μm filter unit (Corning).
The protein was purified using two sequential chromatography steps: Heparin sepharose CL-6B and polyU sepharose 4B. The chromatography buffers were identical to the lysis buffer but contained no lysozyme, deoxyribonuclease I, MgCl2 or protease inhibitor and the NaCl concentration of the buffer was adjusted according to the requirements for charging the protein onto the column. Each column was eluted with a NaCl gradient which varied in length from 5-50 column volumes depending on the column type. […] The enzyme was aliquoted and stored at −80° C.
HCV NS5B RdRp Enzyme Assay.
An on-bead solid phase homogeneous assay was used in a 384-well format to assess NS5B inhibitors (WangY-K, Rigat K, Roberts S, and Gao M (2006) Anal Biochem, 359: 106-111). The biotinylated oligo dT12 primer was captured on streptavidin-coupled imaging beads (GE, RPNQ0261) by mixing primer and beads in 1× buffer and incubating at room temperature for three hours. Unbound primer was removed after centrifugation. The primer-bound beads were resuspended in 3× reaction mix (20 mM Hepes buffer, pH 7.5, dT primer coupled beads, poly A template, ^3H-UTP, and RNAse inhibitor (Promega N2515)). Compounds were serially diluted 1:3 in DMSO and aliquoted into assay plates. Equal volumes (5 μL) of water, 3× reaction mix, and enzyme in 3× assay buffer (60 mM Hepes buffer, pH 7.5, 7.5 mM MgCl2, 7.5 mM KCl, 3 mM DTT, 0.03 mg/mL BSA, 6% glycerol) were added to the diluted compound on the assay plate. Final concentration of components in 384-well assay: 0.36 nM template, 15 nM primer, 0.29 μM ^3H-UTP (0.3 μCi), 1.6 U/4 RNAse inhibitor, 7 nM NS5B enzyme, 0.01 mg/mL BSA, 1 mM DTT, and 0.33 μg/μL beads, 20 mM Hepes buffer, pH 7.5, 2.5 mM MgCl2, 2.5 mM KCl, and 0.1% DMSO.
Reactions were allowed to proceed for 24 hours at 30° C. and terminated by the addition of 50 mM EDTA (5 μL). After incubating for at least 15 minutes, plates were read on an Amersham LEADseeker multimodality imaging system.
IC50 values for compounds were determined using ten different [I]. IC50 values were calculated from the inhibition using the four-parameter logistic formula y=A+((B−A)/(1+((C/x)^D))), where A and B denote minimal and maximal % inhibition, respectively, C is the IC50, D is hill slope and x represents compound concentration.

[2] = tested on: genotype 1b (Con-1) HCV replicon in Huh-7 cells; test: HCV replicon luciferase assay (1b replicon); assay type: cell-based; conditions: Hepatitis C virus, 72 h; genotype 1b replicon, Huh-7, Renilla luciferase, 3 days incubation; read-out: EC50
Experimental: The cell lines used to evaluate compounds consist of a human hepatocyte derived cell line (Huh-7) that constitutively expresses a genotype 1b (Con-1) HCV replicon or a genotype 1b (Con-1) HCV replicon with an asparagine replacing the cysteine at amino acid 316, or a genotype 2a (JFH-1) replicon, containing a Renilla luciferase reporter gene. These cells were maintained in Dulbecco's modified Eagle medium (DMEM) containing 10% FBS, 100 U/mL penicillin/streptomycin and 1.0 mg/mL G418.
HCV Replicon Luciferase Assay.
After 3 days incubation at 37° C., cells were analyzed for Renilla Luciferase activity using the EnduRen substrate (Promega cat #E6485) according to the manufacturer's directions. Briefly, the EnduRen substrate was diluted in DMEM and then added to the plates to a final concentration of 7.5 μM. The plates were incubated for at least 1 h at 37° C. then read on a Viewlux Imager (PerkinElmer) using a luminescence program.

HCV = conditions: extended dosing of the combination regimens with interferon and ribavirin; cited from earlier work

Chain of HCV NS5B genotype 1b (Con1) (Q9WMX2 2420-2992): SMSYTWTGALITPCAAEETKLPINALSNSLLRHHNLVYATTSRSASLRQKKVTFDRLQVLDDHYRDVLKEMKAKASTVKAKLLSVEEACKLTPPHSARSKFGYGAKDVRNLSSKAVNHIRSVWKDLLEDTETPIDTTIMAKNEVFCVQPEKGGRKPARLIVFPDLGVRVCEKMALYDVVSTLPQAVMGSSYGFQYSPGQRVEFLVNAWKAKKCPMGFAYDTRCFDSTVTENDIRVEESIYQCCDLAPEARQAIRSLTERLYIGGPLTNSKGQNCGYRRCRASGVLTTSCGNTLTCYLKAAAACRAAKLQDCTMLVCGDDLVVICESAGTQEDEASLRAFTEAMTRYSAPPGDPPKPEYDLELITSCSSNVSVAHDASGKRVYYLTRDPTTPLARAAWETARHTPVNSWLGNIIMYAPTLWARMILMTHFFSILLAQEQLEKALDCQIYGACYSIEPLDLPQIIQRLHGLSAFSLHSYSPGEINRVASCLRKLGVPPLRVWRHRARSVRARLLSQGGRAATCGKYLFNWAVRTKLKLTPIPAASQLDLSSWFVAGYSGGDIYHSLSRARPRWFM

Row | SMILES | IC50 [1] [nM] | EC50 [2] [nM] | hepatic toxicity (HCV)
1 | CNC(=O)c1c(-c2ccc(F)cc2)oc2cc(OCC(F)(F)F)c(-c3cccc(C(=O)NC(C)(C)c4ncon4)c3)cc12 [Example 21, 5-(3-((2-(1,2,4-oxadiazol-3-yl)propan-2-yl)carbamoyl)phenyl)-2-(4-fluorophenyl)-N-methyl-6-(2,2,2-trifluoroethoxy)benzofuran-3-carboxamide] | 4.49 | 10 | 
2 | CNC(=O)c1c(-c2ccc(F)cc2)oc2cc(OC(C)C)c(-c3ccc(OC)c(C(=O)NC(C)(C)c4ncon4)c3)cc12 [Example 23, 5-(3-((2-(1,2,4-Oxadiazol-3-yl)propan-2-yl)carbamoyl)-4-methoxyphenyl)-2-(4-fluorophenyl)-6-isopropoxy-N-methylbenzofuran-3-carboxamide] | 7.14 | 10 | 
3 | CCOc1cc2oc(-c3ccc(F)cc3)c(C(=O)NC)c2cc1-c1ccc(CC)c(C(=O)NC(C)(C)c2ncon2)c1 [Example 24, 5-(3-((2-(1,2,4-oxadiazol-3-yl)propan-2-yl)carbamoyl)-4-ethylphenyl)-6-ethoxy-2-(4-fluorophenyl)-N-methylbenzofuran-3-carboxamide] | > 2500 | 280 | 
4 | CCCOc1cc2oc(-c3ccc(F)cc3)c(C(=O)NC)c2cc1-c1ccc(OC)c(C(=O)NC(C)(C)c2ncon2)c1 [Example 25, 5-(3-((2-(1,2,4-oxadiazol-3-yl)propan-2-yl)carbamoyl)-4-methoxyphenyl)-2-(4-fluorophenyl)-N-methyl-6-propoxybenzofuran-3-carboxamide] | 2.48 | 6.23 | 
5 | CNC(=O)c1c(-c2ccc(F)cc2)oc2cc(OCC(C)C)c(-c3ccc(OC)c(C(=O)NC(C)(C)c4ncon4)c3)cc12 [Example 26, 5-(3-((2-(1,2,4-oxadiazol-3-yl)propan-2-yl)carbamoyl)-4-methoxyphenyl)-2-(4-fluorophenyl)-6-isobutoxy-N-methylbenzofuran-3-carboxamide] | 30 | 80 | 
6 | [2H]C([2H])([2H])Oc1ccc(-c2cc3c(C(=O)NC)c(-c4ccc(F)cc4)oc3cc2OCC)cc1C(=O)NC(C)(C)C#N [Example 28, 5-(3-((2-cyanopropan-2-yl)carbamoyl)-4-(methoxy-d3)phenyl)-6-ethoxy-2-(4-fluorophenyl)-N-methylbenzofuran-3-carboxamide] | 2.04 | 2.01 | 
7 | CNC(=O)c1c(-c2ccc(F)cc2)oc2cc(OCC(F)(F)F)c(-c3cnc(OC)c(C(=O)NC4(c5ncccn5)CC4)c3)cc12 [Example 29, 5-(2-(4-Fluorophenyl)-3-(methylcarbamoyl)-6-(2,2,2-trifluoroethoxy)benzofuran-5-yl)-2-methoxy-N-(1-(pyrimidin-2-yl)cyclopropyl)nicotinamide] | 2.95 | 4.57 | 
8 | CCOc1cc2oc(-c3ccc(F)cc3)c(C(=O)NC)c2cc1-c1cccc(C(=O)NC(C)(C)c2nc3ccncc3[nH]2)c1 [Example 32, 5-(3-((2-(3H-imidazo[4,5-c]pyridin-2-yl)propan-2-yl)carbamoyl)phenyl)-6-ethoxy-2-(4-fluorophenyl)-N-methylbenzofuran-3-carboxamide] | 6.01 | 10 | 
9 | [2H]C([2H])([2H])Oc1ccc(-c2cc3c(C(=O)NC)c(-c4ccc(F)cc4)oc3cc2OCC)cc1C(=O)NC(C)(C)c1ncsn1 [Example 33, 5-(3-((2-(1,2,4-thiadiazol-3-yl)propan-2-yl)carbamoyl)-4-(methoxy-d3)phenyl)-6-ethoxy-2-(4-fluorophenyl)-N-methylbenzofuran-3-carboxamide] | 2.04 | 2.49 | 
10 | CNC(=O)c1c(-c2ccc(F)cc2)oc2cc(OCCO)c(-c3ccc(OC)c(C(=O)NC(C)(C)c4ncon4)c3)cc12 [Example 34, 5-(3-((2-(1,2,4-Oxadiazol-3-yl)propan-2-yl)carbamoyl)-4-methoxyphenyl)-2-(4-fluorophenyl)-6-(2-hydroxyethoxy)-N-methylbenzofuran-3-carboxamide] | 3.89 | 8.31 | 
11 | CNC(=O)c1c(-c2ccc(F)cc2)oc2cc(N(CCO)S(C)(=O)=O)c(C3CC3)cc12 [HCV-796] |  |  | hepatic toxicity
